Source: patent US12655116B2, “Substituted isophthalic acid diamides” (Bayer Aktiengesellschaft, priority 2020, dated 2026)

Legend:
ABUTH [1] = experiment: Post-emergence herbicidal action against ABUTH; type: in vivo, Abutilon theophrasti; settings: dosage 20 g/ha, visual assessment about 3 weeks after treatment vs untreated controls
In short: (§1)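 Foliar application at one-leaf stage of formulated test compounds, aqueous spray at 600–800 l/ha with 0.2% wetting agent. Greenhouse, optimal conditions, ~3 weeks; damage scored visually in % relative to untreated plants.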

ECHCG [2] = experiment: Pre-emergence herbicidal action against ECHCG; type: in vivo, Echinochloa crus-galli; settings: 80 g/ha
In short: (§2)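 Greenhouse pots of sandy loam held seeds covered with soil, onto which the compound was applied before emergence. An aqueous suspension or emulsion of WP or EC was used at 600 to 800 l/ha with 0.2% wetting agent. Percent damage was judged visually at 3 weeks.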

PHBPU = experiment: Post-emergence herbicidal action against PHBPU; type: in vivo, Pharbitis purpurea
In short: as §1

LOLRI = experiment: Pre-emergence herbicidal action against LOLRI; type: in vivo, Lolium rigidum; settings: 80 g/ha
Description: Seeds of monocotyledonous and dicotyledonous weed plants and crop plants are laid out in sandy loam soil in wood-fiber pots and covered with soil. The compounds of the invention, formulated in the form of wettable powders (WP) or as emulsion concentrates (EC), are then applied to the surface of the covering soil in the form of an aqueous suspension or emulsion at a water application rate equivalent to 600 to 800 l/ha, with addition of 0.2% wetting agent. After the treatment, the pots are placed in a greenhouse and kept under good growth conditions for the trial plants. The damage to the test plants is scored visually after a test period of 3 weeks by comparison with untreated controls (herbicidal activity in percent (%): 100% activity=the plants have died, 0% activity=like control plants). […] The tables below illustrate, in an illustrative manner, the post-emergence herbicidal action of the compounds of the invention, the herbicidal activity being stated in percent.

AMARE [3] = experiment: Post-emergence herbicidal action against AMARE; type: in vivo, Amaranthus retroflexus; settings: 20 g/ha, visual assessment about 3 weeks after treatment, 100% = plants have died, 0% = like control plants
In short: as §1

MATIN = experiment: Pre-emergence herbicidal action against MATIN; type: in vivo, Matricaria inodora
In short: as §2

ABUTH [4] = experiment: Pre-emergence herbicidal action against ABUTH; type: in vivo, Abutilon theophrasti
In short: as §2

AMARE [5] = experiment: Pre-emergence herbicidal action against AMARE; type: in vivo, Amaranthus retroflexus
In short: as §2

VERPE [6] = experiment: Pre-emergence herbicidal action against VERPE; type: in vivo, Veronica persica; settings: dosage 80 g/ha
In short: as §2

ECHCG [7] = experiment: Post-emergence herbicidal action against ECHCG; type: in vivo, Echinochloa crus-galli; settings: dosage 20 g/ha
In short: as §1

DIGSA [8] = experiment: Pre-emergence herbicidal action against DIGSA; type: in vivo, Digitaria sanguinalis; settings: Digitaria sanguinalis, 504 h
In short: as §2

AVEFA = experiment: Pre-emergence herbicidal action against AVEFA; type: in vivo, Avena fatua; settings: Avena fatua, 504 h; 80 g/ha, pre-emergence
In short: as §2

SETVI = experiment: Pre-emergence herbicidal action against SETVI; type: in vivo, Setaria viridis; settings: Setaria viridis, 504 h
In short: as §2

DIGSA [9] = experiment: Post-emergence herbicidal action against DIGSA; type: in vivo, Digitaria sanguinalis; settings: Digitaria sanguinalis, 504 h
In short: as §1

VERPE [10] = experiment: Post-emergence herbicidal action against VERPE; type: in vivo, Veronica persica; settings: Veronica persica, 504 h, 20 g/ha
In short: as §1

VIOTR [11] = experiment: Post-emergence herbicidal action against VIOTR; type: in vivo, Viola tricolor; settings: Viola tricolor, 504 h, 20 g/ha
In short: as §1

VIOTR [12] = experiment: Pre-emergence herbicidal action against VIOTR; type: in vivo, Viola tricolor; settings: Viola tricolor, 504 h
In short: as §2

ALOMY = experiment: Pre-emergence herbicidal action against ALOMY; type: in vivo, Alopecurus myosuroides; settings: Alopecurus myosuroides, 504 h, pre-emergence
In short: as §2

[13] = 80 g/ha, scored visually after 3 weeks vs untreated controls (100% = plants have died, 0% = like control plants)

Cn1nnnc1NC(=O)c1ccc(C(F)F)c(C(=O)NCC2CCCO2)c1Cl (centres unmarked) [Example 1-159]
Post-emergence action against ABUTH in % (ABUTH [1]): 80% | Pre-emergence action against ECHCG in % (ECHCG [2]): 90% | Post-emergence action against PHBPU in % (PHBPU; dosage 5 g/ha): 80% | Post-emergence action against PHBPU in % (PHBPU; dosage 20 g/ha): 80% | Pre-emergence action against LOLRI in % (LOLRI): 80% | Post-emergence action at 20 g/ha against AMARE in % (AMARE [3]): 100% | Pre-emergence action against MATIN in % (MATIN; dosage 80 g/ha): 90% | Pre-emergence action against ABUTH (herbicidal activity) (ABUTH [4]; [13]): 100% | Pre-emergence action against ABUTH (herbicidal activity in percent) (ABUTH [4]; dosage 20 g/ha, scored visually after 3 weeks vs untreated controls, 100% = plants have died, 0% = like control plants): 80% | Pre-emergence action against AMARE in % (AMARE [5]; 20 g/ha, scored visually after 3 weeks vs untreated controls, 100% = plants have died, 0% = like control plants): 100% | Pre-emergence action against AMARE in % (AMARE [5]; [13]): 100% | Pre-emergence action against VERPE in % (VERPE [6]): 80% | Post-emergence action against ECHCG in % (ECHCG [7]): 90%

Cn1nnnc1NC(=O)c1ccc(I)c(C(=O)NC2CC2)c1Cl [Example 1-197]
pest or weed control at 20 g/ha (ABUTH [1]; Abutilon theophrasti, 504 h): 100% | pest or weed control at 80 g/ha (ECHCG [2]; Echinochloa crus-galli, 504 h): 90% | pest or weed control at 20 g/ha (PHBPU; Ipomoea purpurea, 504 h, dosage 20 g/ha): 90% | pest or weed control at 20 g/ha (DIGSA [8]; dosage 20 g/ha): 100% | pest or weed control at 80 g/ha (DIGSA [8]; dosage 80 g/ha): 100% | pest or weed control at 80 g/ha (AVEFA): 100% | pest or weed control at 20 g/ha (SETVI; dosage 20 g/ha): 100% | pest or weed control at 80 g/ha (SETVI; dosage 80 g/ha): 100% | pest or weed control at 5 g/ha (DIGSA [9]; 5 g/ha): 100% | pest or weed control at 20 g/ha (DIGSA [9]; 20 g/ha): 100% | pest or weed control at 20 g/ha (VERPE [10]): 80% | pest or weed control at 20 g/ha (VIOTR [11]): 100% | pest or weed control at 80 g/ha (LOLRI; Lolium rigidum, 504 h): 80% | pest or weed control at 20 g/ha (AMARE [3]; Amaranthus retroflexus, 504 h): 100% | pest or weed control at 20 g/ha (VIOTR [12]; dosage 20 g/ha): 100% | pest or weed control at 80 g/ha (VIOTR [12]; dosage 80 g/ha): 100% | pest or weed control at 20 g/ha (MATIN; Tripleurospermum inodorum, 504 h, dosage 20 g/ha): 90% | pest or weed control at 80 g/ha (MATIN; Tripleurospermum inodorum, 504 h, dosage 80 g/ha): 100% | pest or weed control at 80 g/ha (ALOMY; [13]): 100% | pest or weed control at 20 g/ha (ALOMY; 20 g/ha, scored visually after 3 weeks, 100% = plants have died, 0% = like control plants): 100% | pest or weed control at 80 g/ha (ABUTH [4]; Abutilon theophrasti, 504 h, 80 g/ha, scored visually after 3 weeks vs untreated controls (100% = plants have died, 0% = like control plants)): 100% | pest or weed control at 20 g/ha (ABUTH [4]; Abutilon theophrasti, 504 h, dosage 20 g/ha, scored visually after 3 weeks vs untreated controls, 100% = plants have died, 0% = like control plants, read-out: Pre-emergence action against ABUTH (herbicidal activity in percent)): 100% | pest or weed control at 20 g/ha (AMARE [5]; Amaranthus retroflexus, 504 h, 20 g/ha, scored visually after 3 weeks vs untreated controls, 100% = plants have died, 0% = like control plants): 100% | pest or weed control at 80 g/ha (AMARE [5]; Amaranthus retroflexus, 504 h, 80 g/ha, scored visually after 3 weeks vs untreated controls, 100% = plants have died, 0% = like control plants): 100% | pest or weed control at 20 g/ha (ECHCG [7]; Echinochloa crus-galli, 504 h): 90%
